In PubChem BioAssay AID1996:
≈ marks a conversion by molar mass, not a printed value.

Settings: buffer; pH 7.4; 200.0 µM

solubility kinetic [µg/mL]	SMILES
> 46.9	CCOc1ccccc1NC1=NC2CS(=O)(=O)CC2S1 (stereo not drawn)
> 47.1	Cn1cc(-c2ccccc2C(=O)O)c(=O)c2cc(Cl)ccc21
37.5 (≈ 127 µM)	OC(COc1ccc(Cl)cc1)CSc1ccccn1 (stereo not drawn)
0.7 (≈ 2.56 µM)	O=c1cc(-c2ccncc2)oc2c1ccc1ccccc12
21.8 (≈ 59.4 µM)	Cc1nc(NC(=O)COC(=O)CCc2ccccc2)c(Cl)cc1Cl
54.4 (≈ 145 µM)	O=C(c1cnc2sccn2c1=O)N1CCN(c2ccccc2Cl)CC1
> 54.2	CC(=O)Oc1ccc(C(c2ccc(OC(C)=O)cc2)c2ccccn2)cc1
> 49.7	O=C(NCCCN1CCOCC1)C1CC(=O)N(c2ccccc2)C1 (stereo not drawn)
> 45.3	CCC(=O)Nc1ccc(Cl)c(-c2nc3ncccc3o2)c1
> 39.1	CCC1CCCCN1C(=O)NC(=O)c1ccccc1 (stereo not drawn)
> 43.5	CN1CCCC(OC(=O)c2cccc(Cl)c2)C1.Cl (stereo not drawn)
0.7 (≈ 2.15 µM)	O=C(Nc1nc(-c2cccnc2)cs1)c1ccccc1[N+](=O)[O-]
3.1 (≈ 9.56 µM)	O=C(Nc1ccccc1)N1CCN(C(=O)Nc2ccccc2)CC1
40.5 (≈ 143 µM)	CC(=O)NC1CCN(CC(=O)Nc2nccs2)CC1
> 43.5	CNC(=O)Nc1cc(NC(=O)NC)cc(C(F)(F)F)c1
2.1 (≈ 6.01 µM)	COC(=O)c1ccc(N=CC2=C(O)CC(c3ccccc3)CC2=O)cc1 (stereo not drawn)
33.4 (≈ 149 µM)	O=C(NC1=NCCS1)c1ccccc1F
< 0.2	Clc1cccc(-c2csc(Nc3cccnc3)n2)c1
> 41.2	CC(=O)c1ccc(NC(=S)NCc2ccco2)cc1
5.4 (≈ 19.1 µM)	Cc1ccc2[nH]c(CNC(=O)c3ccccc3F)cc2c1
21.6 (≈ 83 µM)	O=S(=O)(c1ccc(=S)[nH]c1)N1CCOCC1
5.4 (≈ 17.9 µM)	Cc1cccn2c(=O)c(C(=O)NC3CCCCC3)c(O)nc12
1.2 (≈ 3.82 µM)	Cc1cc(SCC(=O)NC2CCCCC2)nc2ccccc12
< 0.3	O=C(Nc1ccccc1N1CCCCC1)c1cccc(Cl)c1
0.3 (≈ 1.01 µM)	CN(C)c1nc(-c2cccs2)cc(C(F)(F)F)c1C#N
22.2 (≈ 66 µM)	O=C(CN1C(=O)c2ccccc2S1(=O)=O)NCc1cccs1
> 57.1	CCC(=O)c1ccc(OCC(=O)NCc2ccccc2CN2CCCC2)cc1
35.7 (≈ 135 µM)	O=C(O)CCn1c(-c2ccccc2)cc2ccccc21

solubility kinetic [µg/mL]	SMILES
1.4 (≈ 4.45 µM)	COc1ccc(C(=O)Nc2nc3ccc(OC)cc3s2)cc1
> 50.2	CN(C)C(=O)C(OC(=O)c1ccc2ccccc2n1)c1ccccc1 (stereo not drawn)
25.3 (≈ 91.2 µM)	COc1cc(/C=C2\N=C(C)OC2=O)cc(OC)c1OC
> 47.5	CCCN1C2CCCC1CC(NC(=O)c1cccc(OC)c1)C2 (stereo not drawn)
3.6 (≈ 10.7 µM)	Cc1cc(S(=O)(=O)N2CCN(c3ccccn3)CC2)ccc1F
43 (≈ 118 µM)	CCN(CC)C(=O)Cn1cc(/C=C(\C#N)C(=O)NC2CC2)c2ccccc21
35.4 (≈ 134 µM)	Cn1ccnc1C(O)(c1ccccc1)c1ccccc1
14.7	Cc1ccn2c(NC3CCCC3)c(-c3cccs3)nc2c1.Cl
> 46.7	Nc1cc(=O)n(Cc2ccccc2)c(=O)n1-c1ccc(F)cc1
39.7 (≈ 128 µM)	Cc1[nH]c2ccccc2c1C(=O)COC(=O)c1ccc[n+]([O-])c1
> 50.9	O=C(C1CC1)N(Cc1nc2ccccc2c(=O)[nH]1)Cc1cccs1
39 (≈ 112 µM)	COCC(C)NC(=O)COCc1cc(-c2ccc3c(c2)OCO3)on1 (stereo not drawn)
2.7 (≈ 6.96 µM)	Cc1cc(-n2c(C)cc(C(=O)COc3ccc(Cl)cc3C(N)=O)c2C)no1
> 42.2	O=C(O)C1CSC2(c3ccc(F)cc3)CCC(=O)N12 (stereo not drawn)
43.7 (≈ 148 µM)	CC(C)(CO)NC(=O)c1ccc2c(c1)C(=O)c1ccccc1-2
23.1 (≈ 77.4 µM)	Cc1ccc(NC(=O)CN2CCc3ccccc3C2)cc1F
> 38.4	O=C1CSC(c2ccccc2)N1c1cccnc1 (stereo not drawn)
19.2 (≈ 55.6 µM)	CCCCc1cc(=O)oc2cc(OCC(=O)N3CCOCC3)ccc12
10.9 (≈ 32.3 µM)	Cc1ccc(NC(=O)NC(=O)c2cnccc2C(F)(F)F)c(C)c1
11.7 (≈ 33.9 µM)	COc1ccc(-c2csc(NC(=O)CN3C(=O)CCC3=O)n2)cc1
14.5 (≈ 44 µM)	O=C(COC(=O)c1ccccc1O)NC12CC3CC(CC(C3)C1)C2
< 0.2	Cc1ccc(-c2csc(NC(=O)c3cnccn3)n2)cc1C
9.5 (≈ 36.9 µM)	COC(=O)c1cccc(NC(=O)c2cnccn2)c1
> 44.6	Cc1cccc(C(=O)NCCCNC(=O)c2ccccn2)c1
> 35.4	COc1ccccc1CN1C(=O)CNC1=S
> 51.3	O=C(COC(=O)c1ccc(Br)cc1)NCC1CCCO1 (stereo not drawn)
> 61.1	CC(=O)c1cccc(NC(=O)C(C)OC(=O)CCc2nc3ccccc3c(=O)[nH]2)c1 (stereo not drawn)

SMILES	solubility kinetic [µg/mL]
CCc1c(C)nc(N)nc1N1N=C1SCCOc1ccccc1	> 49.4
Cc1ccc2[nH]c(=S)n(-c3cccnc3)c(=O)c2c1	2.8 (≈ 10.4 µM)
O=C(NC1CN2CCC1CC2)c1cccc(Cl)c1 (stereo not drawn)	> 39.7
